Measurements reported in PubChem BioAssay (NCI).
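Values below derive from 48-hour exposures of cells grown in 96-well plates, with endpoints linearly interpolated between the two concentrations bracketing the appropriate inhibition level. GI50 marks 50% less growth. Definition used: TGI = concentration required for complete inhibition of growth.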

What was measured:
Experiment in all cases: NCI-60 cell line screen, 48 h; in the data active means GI50 below about 0.43 µM; inactive means the rest
[1] = tested on: BT-549 breast
[2] = tested on: CAKI-1 renal
[3] = tested on: COLO 205 colon
[4] = tested on: KM12 colon
[5] = tested on: M14 melanoma
[6] = tested on: NCI/ADR-RES ovarian
[7] = tested on: SF-268 CNS
[8] = tested on: SK-MEL-28 melanoma
[9] = tested on: SK-MEL-5 melanoma
[10] = tested on: SN12C renal
[11] = tested on: UACC-257 melanoma
[12] = tested on: HOP-92 NSCLC

Cc1nnc2n1-c1ccccc1C(=S)N1CSCC21 (configuration not stated)
> 100 µM: TGI [1] | TGI [2] | TGI [3] | TGI [4] | TGI [5] | TGI [6] | TGI [7] | TGI [8] | TGI [9] | TGI [10] | TGI [11]

CCN(CC)C(=S)SS(=O)(=O)c1ccc([N+](=O)[O-])cc1
24.5 µM: TGI [4]
> 100 µM: TGI [1] | TGI [3] | TGI [6] | TGI [7] | TGI [10]
28.6 µM: TGI [5]
34.4 µM: TGI [2]
38.3 µM: TGI [8]
29.2 µM: TGI [9]
53.5 µM: TGI [11]
inactive: GI50 [4] 11.1 µM | GI50 [5] 14.9 µM | GI50 [6] 48.3 µM | GI50 [7] > 100 µM | GI50 [8] 19 µM | GI50 [10] 26.9 µM | GI50 [11] 24 µM

Cc1ccc(Nc2cc(=O)[nH]c(=S)[nH]2)cc1
> 100 µM: TGI [1] | TGI [2] | TGI [3] | TGI [12] | TGI [4] | TGI [5] | TGI [6] | TGI [7] | TGI [9] | TGI [10] | TGI [11]

COc1ccc(C(C#N)NNc2nc(C)cc(=O)[nH]2)cc1OC (configuration not stated)
> 100 µM: TGI [2] | TGI [3] | TGI [12] | TGI [4] | TGI [5] | TGI [7] | TGI [8] | TGI [9] | TGI [10] | TGI [11]

COC(=O)C1C2C=CC(C2)N1[C@@H](C)c1ccccc1 (some centres not stated)
> 100 µM: TGI [2] | TGI [3] | TGI [12] | TGI [4] | TGI [5] | TGI [7] | TGI [8] | TGI [9] | TGI [10] | TGI [11]

CCC(=O)O[C@H]1CC[C@H]2[C@@H]3CCC4=C/C(=N/NC(=O)c5cccc6c(=O)c7ccccc7[nH]c56)CC[C@]4(C)[C@H]3CC[C@]12C
> 25 µM: TGI [1] | TGI [3] | TGI [12] | TGI [4] | TGI [5] | TGI [6] | TGI [7] | TGI [8] | TGI [9] | TGI [10] | TGI [11]

CC(=O)OC1c2ccccc2CCCCCCC12OCCO2 (configuration not stated)
> 100 µM: TGI [2] | TGI [3] | TGI [4] | TGI [5] | TGI [7] | TGI [8] | TGI [9] | TGI [10] | TGI [11]

CN1CN(c2ccccc2)C2(CCN(CCc3csc4ccccc34)CC2)C1=O
38.4 µM: TGI [5]
33.3 µM: TGI [9]
28.1 µM: TGI [6]
28.4 µM: TGI [11]
30.1 µM: TGI [2]
29.7 µM: TGI [8]
25.9 µM: TGI [4]
> 100 µM: TGI [7]
35.7 µM: TGI [3]
32.1 µM: TGI [10]
17.7 µM: TGI [1]

COC(=O)CCC12CCC(O1)c1ccccc12 (configuration not stated)
> 100 µM: TGI [1] | TGI [2] | TGI [3] | TGI [12] | TGI [4] | TGI [5] | TGI [6] | TGI [8] | TGI [9] | TGI [10] | TGI [11]
